This passage reports EC50 and IC50 results from ChEMBL document CHEMBL1201862, “PubChem BioAssay data set” (2004).

The structures appear in SMILES notation. The source made the active and inactive calls. A value given as a limit tells only on which side of the number the result lay.

Assay [1] addresses T1, Corticotropin-releasing factor receptor 2/Corticotropin-releasing factor-binding protein (Homo sapiens, UniProt P24387+Q13324).
T1 sequence (Q13324 whole entry): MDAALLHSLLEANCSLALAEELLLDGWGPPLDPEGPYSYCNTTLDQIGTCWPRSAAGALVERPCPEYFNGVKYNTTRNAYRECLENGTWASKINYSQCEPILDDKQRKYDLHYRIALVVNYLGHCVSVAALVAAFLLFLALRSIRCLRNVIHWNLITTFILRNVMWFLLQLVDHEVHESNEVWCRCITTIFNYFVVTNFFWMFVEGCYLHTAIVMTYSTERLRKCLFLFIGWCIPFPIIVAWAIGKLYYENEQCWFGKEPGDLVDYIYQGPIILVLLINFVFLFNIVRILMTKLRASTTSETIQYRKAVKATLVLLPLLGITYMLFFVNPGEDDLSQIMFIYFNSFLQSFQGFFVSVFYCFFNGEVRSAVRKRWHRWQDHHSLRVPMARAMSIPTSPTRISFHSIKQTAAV
T1 sequence (P24387 whole entry): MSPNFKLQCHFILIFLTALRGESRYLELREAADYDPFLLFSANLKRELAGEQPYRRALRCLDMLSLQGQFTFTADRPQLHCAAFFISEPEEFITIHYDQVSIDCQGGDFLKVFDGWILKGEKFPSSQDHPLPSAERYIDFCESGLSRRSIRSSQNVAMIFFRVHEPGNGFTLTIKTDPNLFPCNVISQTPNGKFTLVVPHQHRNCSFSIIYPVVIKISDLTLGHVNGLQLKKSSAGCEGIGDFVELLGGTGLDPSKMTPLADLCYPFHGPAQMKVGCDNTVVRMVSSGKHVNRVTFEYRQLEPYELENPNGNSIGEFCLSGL
The assay is described as follows: activators of CRF receptor 2 with binding protein – uHTS hits, confirmation (AID 602473). The note with it: read-out: EC50_Mean. The assay is classed as functional.

A further assay has as its target Mucolipin-3 (Homo sapiens, UniProt Q8TDD5). The assay is described as follows: Dose response cell-based high-throughput screening assay for agonists of the transient receptor potential channel ML3 (TRPML3). [Related pubchem assays: 1526, 1424, 1448 ]. It counts as functional.
The target in the next assay is Ion channel NompC (Danio rerio, UniProt Q7T1G6). The assay is described as follows: Fluorescence counterscreen assay for TRPML3 agonists: dose response cell-based high-throughput screening assay to identify agonists of the transient receptor potential channel N1 (TRPN1). [Related pubchem assays: 1526, 1424, 1448 ]. It counts as functional.
Assay [2] deals with T2, Neuropeptide Y receptor type 1 (Homo sapiens, UniProt P25929).
T2 sequence (P25929 whole entry): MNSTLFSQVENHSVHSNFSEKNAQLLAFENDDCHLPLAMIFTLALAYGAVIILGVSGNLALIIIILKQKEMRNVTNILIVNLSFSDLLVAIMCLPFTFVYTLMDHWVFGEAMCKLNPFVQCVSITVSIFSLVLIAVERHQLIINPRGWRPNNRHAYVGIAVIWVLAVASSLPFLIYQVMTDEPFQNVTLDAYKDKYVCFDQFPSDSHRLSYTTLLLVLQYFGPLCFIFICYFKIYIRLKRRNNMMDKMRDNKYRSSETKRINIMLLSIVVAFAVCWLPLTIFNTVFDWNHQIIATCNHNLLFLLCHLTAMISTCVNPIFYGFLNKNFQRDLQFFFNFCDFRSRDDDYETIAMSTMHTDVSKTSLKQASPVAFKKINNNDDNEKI
The assay is classed as functional.

Assay [3] has as its target T3, RNA-binding protein pos-1 (Caenorhabditis elegans, UniProt G5EF15).
T3 sequence (G5EF15 whole entry): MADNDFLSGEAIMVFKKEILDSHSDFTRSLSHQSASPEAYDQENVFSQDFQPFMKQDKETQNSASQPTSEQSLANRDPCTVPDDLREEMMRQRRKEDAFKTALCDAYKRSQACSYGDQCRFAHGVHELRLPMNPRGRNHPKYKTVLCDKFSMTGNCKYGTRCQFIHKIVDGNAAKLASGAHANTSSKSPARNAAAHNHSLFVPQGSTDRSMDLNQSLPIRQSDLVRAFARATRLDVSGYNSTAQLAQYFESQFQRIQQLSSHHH
The assay is described as follows: inhibitors of POS-1/mex-3 RNA binding, dose response, biochemical, fluorescence polarization (AID 1964).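 Further: purified POS-1 fused to maltose binding protein made in E. coli; potency of compounds blocking POS-1 binding to fluorescent RNA.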

In assay [4] the target is T4, Zinc finger protein mex-5 (Caenorhabditis elegans, UniProt Q9XUB2).
T4 sequence (Q9XUB2 whole entry): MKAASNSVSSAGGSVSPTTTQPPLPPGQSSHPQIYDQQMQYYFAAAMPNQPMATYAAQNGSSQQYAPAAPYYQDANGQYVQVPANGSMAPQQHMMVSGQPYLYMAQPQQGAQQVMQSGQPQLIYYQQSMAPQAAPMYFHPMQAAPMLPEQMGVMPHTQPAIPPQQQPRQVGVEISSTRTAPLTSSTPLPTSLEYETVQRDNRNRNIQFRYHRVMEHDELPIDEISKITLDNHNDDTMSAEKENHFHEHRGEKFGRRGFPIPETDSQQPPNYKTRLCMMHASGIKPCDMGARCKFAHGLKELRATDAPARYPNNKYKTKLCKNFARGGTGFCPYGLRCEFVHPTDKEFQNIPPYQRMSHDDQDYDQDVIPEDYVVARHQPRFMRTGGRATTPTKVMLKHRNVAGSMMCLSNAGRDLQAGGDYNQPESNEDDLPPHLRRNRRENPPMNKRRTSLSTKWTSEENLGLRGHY
The assay is described as follows: MEX-5/TCR-2 RNA interaction inhibitors, dose response, biochemical, C. elegans, fluorescence polarization (AID 1960).

Assay [5] concerns the target T5, Neuropeptide Y receptor type 2 (Homo sapiens, UniProt P49146).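 Further: HEK293 cells expressing the receptor and a CNG channel; stimulus was NPY near EC95 followed by isoproterenol to raise cAMP; antagonist potency measured as restoring cAMP signal that NPY suppresses.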
T5 sequence (P49146 whole entry): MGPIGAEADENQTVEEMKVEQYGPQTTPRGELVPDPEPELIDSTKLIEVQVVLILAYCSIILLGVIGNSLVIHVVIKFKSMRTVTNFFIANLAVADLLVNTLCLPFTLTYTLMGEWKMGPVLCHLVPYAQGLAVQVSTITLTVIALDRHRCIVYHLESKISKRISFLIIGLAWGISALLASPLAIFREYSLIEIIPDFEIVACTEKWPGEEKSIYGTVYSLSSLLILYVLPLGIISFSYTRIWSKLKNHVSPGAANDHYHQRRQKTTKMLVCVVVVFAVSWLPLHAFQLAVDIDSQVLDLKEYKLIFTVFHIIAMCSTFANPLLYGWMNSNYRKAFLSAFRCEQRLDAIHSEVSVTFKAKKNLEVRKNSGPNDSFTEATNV
The assay is classed as functional, cell-based.

The test system of a further assay is HT-1080. The assay is described as follows: cytotoxicity in HT1080 fibrosarcoma cells, cell-based, fluorescence readout (AID 620). It counts as functional. The note with it: Homo sapiens.
The target in assay [6] is Luciferin 4-monooxygenase (Photinus pyralis, UniProt P08659). The assay is described as follows: Counter Screen for Luciferase-based Assay Positives. [Related pubchem assays: 620, 618, 411 ]. A general note: Counterscreens check selectivity or assay interference.
Assay [7] is described as follows: cells. The assay is classed as functional, cell-based.
Assay [8] in a line: cells. The assay is classed as functional, cell-based. The source holds these as a separate data set.

Broadly, the IC50 is the point on the concentration scale where inhibition reaches its midpoint.

Ion channel NompC, sequence (Q7T1G6 whole entry): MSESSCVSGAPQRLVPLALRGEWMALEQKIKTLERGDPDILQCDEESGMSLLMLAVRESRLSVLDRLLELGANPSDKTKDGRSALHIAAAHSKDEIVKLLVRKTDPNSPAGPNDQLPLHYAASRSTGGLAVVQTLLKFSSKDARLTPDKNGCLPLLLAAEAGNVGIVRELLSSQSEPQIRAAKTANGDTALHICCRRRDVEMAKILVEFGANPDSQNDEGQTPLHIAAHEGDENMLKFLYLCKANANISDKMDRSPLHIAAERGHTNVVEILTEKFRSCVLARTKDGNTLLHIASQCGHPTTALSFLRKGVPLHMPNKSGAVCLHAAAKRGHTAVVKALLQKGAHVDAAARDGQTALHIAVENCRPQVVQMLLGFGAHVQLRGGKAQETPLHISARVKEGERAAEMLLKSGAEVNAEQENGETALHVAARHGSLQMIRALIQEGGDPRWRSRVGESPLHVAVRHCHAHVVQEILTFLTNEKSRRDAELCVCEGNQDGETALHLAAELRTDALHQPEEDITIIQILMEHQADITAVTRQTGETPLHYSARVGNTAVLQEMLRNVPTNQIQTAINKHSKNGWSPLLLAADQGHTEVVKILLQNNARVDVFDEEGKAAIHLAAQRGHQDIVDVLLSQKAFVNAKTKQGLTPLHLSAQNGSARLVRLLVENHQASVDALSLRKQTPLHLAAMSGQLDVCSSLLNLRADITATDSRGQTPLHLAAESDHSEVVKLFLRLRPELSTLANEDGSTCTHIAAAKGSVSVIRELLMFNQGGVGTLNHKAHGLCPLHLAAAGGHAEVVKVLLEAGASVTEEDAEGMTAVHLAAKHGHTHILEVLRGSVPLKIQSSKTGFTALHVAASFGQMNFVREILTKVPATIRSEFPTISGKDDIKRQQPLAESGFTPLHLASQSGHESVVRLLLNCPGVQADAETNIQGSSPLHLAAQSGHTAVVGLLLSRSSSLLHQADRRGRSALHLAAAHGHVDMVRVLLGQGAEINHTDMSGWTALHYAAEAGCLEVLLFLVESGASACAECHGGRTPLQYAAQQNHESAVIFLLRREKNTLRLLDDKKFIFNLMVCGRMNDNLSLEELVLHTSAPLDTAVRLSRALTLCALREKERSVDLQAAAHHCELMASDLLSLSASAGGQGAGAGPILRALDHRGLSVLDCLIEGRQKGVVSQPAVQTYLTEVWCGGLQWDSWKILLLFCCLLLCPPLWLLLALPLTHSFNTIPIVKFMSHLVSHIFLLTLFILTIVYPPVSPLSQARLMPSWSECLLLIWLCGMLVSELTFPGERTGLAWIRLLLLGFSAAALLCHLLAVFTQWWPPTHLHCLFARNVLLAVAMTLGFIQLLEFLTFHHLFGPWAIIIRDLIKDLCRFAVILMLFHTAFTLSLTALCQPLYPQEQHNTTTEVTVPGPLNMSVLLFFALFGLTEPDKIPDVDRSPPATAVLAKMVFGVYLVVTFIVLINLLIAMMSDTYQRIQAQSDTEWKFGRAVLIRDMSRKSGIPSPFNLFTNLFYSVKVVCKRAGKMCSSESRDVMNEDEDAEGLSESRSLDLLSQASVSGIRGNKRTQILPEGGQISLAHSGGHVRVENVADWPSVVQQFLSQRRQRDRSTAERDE
Mucolipin-3, sequence (Q8TDD5 whole entry): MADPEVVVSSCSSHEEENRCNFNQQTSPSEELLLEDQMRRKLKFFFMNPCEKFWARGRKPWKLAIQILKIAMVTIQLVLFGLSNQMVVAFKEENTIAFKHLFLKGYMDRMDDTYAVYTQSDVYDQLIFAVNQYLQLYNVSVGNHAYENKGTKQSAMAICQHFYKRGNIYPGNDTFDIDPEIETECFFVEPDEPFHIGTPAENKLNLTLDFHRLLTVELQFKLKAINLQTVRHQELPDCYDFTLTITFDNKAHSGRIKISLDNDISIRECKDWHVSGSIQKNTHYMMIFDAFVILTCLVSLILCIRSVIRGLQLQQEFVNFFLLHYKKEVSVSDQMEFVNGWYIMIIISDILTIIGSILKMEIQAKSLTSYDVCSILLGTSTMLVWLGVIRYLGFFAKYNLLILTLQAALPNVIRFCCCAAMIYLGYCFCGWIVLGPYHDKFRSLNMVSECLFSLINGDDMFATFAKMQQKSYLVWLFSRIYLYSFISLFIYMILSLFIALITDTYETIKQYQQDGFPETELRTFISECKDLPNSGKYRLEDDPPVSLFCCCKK
Luciferin 4-monooxygenase, sequence (P08659 whole entry): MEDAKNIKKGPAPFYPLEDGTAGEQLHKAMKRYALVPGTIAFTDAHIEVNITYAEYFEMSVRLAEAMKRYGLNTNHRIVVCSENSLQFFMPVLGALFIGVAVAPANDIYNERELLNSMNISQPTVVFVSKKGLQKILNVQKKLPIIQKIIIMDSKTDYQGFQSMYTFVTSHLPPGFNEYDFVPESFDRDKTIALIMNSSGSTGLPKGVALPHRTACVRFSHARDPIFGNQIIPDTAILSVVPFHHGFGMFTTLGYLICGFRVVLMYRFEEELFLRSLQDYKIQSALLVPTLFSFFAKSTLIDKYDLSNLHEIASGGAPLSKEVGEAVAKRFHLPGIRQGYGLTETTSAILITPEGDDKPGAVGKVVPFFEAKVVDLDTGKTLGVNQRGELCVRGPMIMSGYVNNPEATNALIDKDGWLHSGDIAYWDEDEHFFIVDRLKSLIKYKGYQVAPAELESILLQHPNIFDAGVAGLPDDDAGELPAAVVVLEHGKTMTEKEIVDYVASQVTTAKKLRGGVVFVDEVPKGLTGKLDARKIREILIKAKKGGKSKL

Regarding `COc1ccc(C(=O)CSc2nnn(-c3cccc(NC(C)=O)c3)n2)cc1`, the values for the EC50 (in assay [1]; on Mucolipin-3; on Ion channel NompC) were 4.96 µM (active), 17.3 µM (not active) and 9.35 µM (active), respectively.
For `O=C1C2CC=C(Cl)CC2C(=O)N1CC1Cc2ccccc2CO1` (stereo not given), the IC50 in assay [2] is 7.82 µM (active); in assay [5], 5.72 µM (active). The EC50 was 23 µM (active) in [3] and 22 µM (active) in assay [4].
On to `CC(C)[C@H](NS(=O)(=O)c1ccccc1)C(=O)OCC(=O)Nc1ccccc1Sc1ccccc1`, for which the EC50 at Mucolipin-3 is 3.96 µM (active); on Ion channel NompC, > 29.9 µM (not active).
Take `COc1ccc(S(=O)(=O)N2CCN(C(=O)CCC3CCCC3)CC2)cc1`: the figures for the EC50 (with HT-1080; in assay [6]) were > 50 µM (not active) and 2.3 µM (active), respectively.
Consider `CCCCCCCCCS(=O)(=O)N/N=C/c1cccc([N+](=O)[O-])c1`, for which the IC50 in assay [2] and in assay [5] was > 35 µM (not active) each time. Also, the values for the EC50 in “cells [7]” and in the assay “cells [8]” were 23.7 µM (active) and > 350 µM (not active), respectively.
